According to patent US20180319865A1, “Identification of Novel Small Molecule Beta2 Integrin Agonists” (Rush University Medical Center, priority 2016, published 2018):

Legend:
Type in all cases: cell-based
[1] = biological target: T1, mutant integrin CD11bE320A/CD18 (Homo sapiens, UniProt P11215, E336A); experiment: HTS cell adhesion assay, K562 E320A cells on immobilized fibrinogen; settings: five point dose-response
T1 construct: expressed in transfected cells; host or cells: K562 (ATCC)
In short: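 K562 cells expressing the indicated CD11b/CD18 integrin were added to wells coated with 15 μg/mL fibrinogen and incubated with compound for 30 min at 37 °C in Ca2+/Mg2+ buffer. Non-adherent cells were removed by plate inversion. Adherent cells were fixed, stained with DAPI and counted by high-content imaging, scaled from 0% (1 mM Ca2+/Mg2+) to 100% (Mn2+ activation).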

integrin CD11c/CD18 = biological target: T2, integrin CD11c/CD18 (Homo sapiens, UniProt P20702); experiment: HTS cell adhesion assay, K562 CD11c/CD18 cells on immobilized fibrinogen; settings: for EC50 CD11c/CD18: K562 CD11c/CD18 cells, adhesion to fibrinogen, dose-response
T2 construct: expressed in transfected cells; host or cells: K562 (ATCC)
Description: (§1) K562 cells stably expressing CD11c/CD18 (K562 CD11c/CD18) were generated similarly. Mutant CD11bE320A has been described previously. K562 cells stably transfected with mutant integrin CD11bE320A/CD18 (K562 E320A) were generated according to literature protocols. All cell lines were maintained in Iscove's Modified Dulbecco's Medium (IMDM) supplemented with 10% heat-inactivated fetal bovine serum, 50 IU/mL penicillin and streptomycin and 0.5 mg/mL G418.
(§2) Cell adhesion assays with immobilized ligands were performed using the general protocol previously described and as illustrated in FIG. 1 [33]. Assays with all different K562 cell lines (K562, K562 CD11b/CD18, K562 CD11c/CD18 and K562 E320A) were performed in an identical fashion. Briefly, 384-well microplates (Corning 3700) were coated with 15 μg/mL fibrinogen (Fg) ligand in PBS^++ overnight at 4° C. At the same time, anti-CD18 (IB4) mAb was also coated. Subsequently, the coated wells were washed with 1% nonfat milk in TBS at room temperature for 1 hour. Next, the wells were washed 3 times with TBS, and the coated microplates were used in the HTS assays.
(§3) K562 CD11b/CD18, K562 CD11bE320A/CD18 and K562 CD11c/CD18 cells were washed with TBS, and cells were transferred to the Fg-coated wells of microplates in the assay buffer (Ca^2+ and Mg^2+ for physiological condition, Mn^2+ as the Positive control). A 1 μL aliquot of the compounds were transferred to each washed well with multichannel pipet from the 384-well plates.
(§4) The assay plates were incubated at 37° C. in the presence of small-molecule compounds for 30 min. To dislodge the non-adherent cell, the assay plates were gently inverted and kept in inverted position for 20 min at room temperature.
(§5) The cells were fixed with 37% formaldehyde in a small volume and the plates were kept inverted for 1 h. Upon the fixation, the solutions in the well were discarded. Next, the cells were fluorescently labeled with DAPI (0.5 μM final in TBS with 0.1% Triton X-100) and the quantitated with “Opera High Content Screening System” (Perkin Elmer).
Cell-adhesion under positive and negative control conditions was used to define the activity scale; signal corresponding to the number of non-small molecule treated cells adherent in activating buffer condition (in the presence of Mn^2+ ions as agonist, PC) was considered maximum (100% binding) and the signal corresponding to the number of non-small molecule treated cells adherent in basal buffer condition (in the presence of 1 mM each of Ca^2+ and Mg^2+, NC) was considered minimum (0% binding). […]
The compounds were diluted in DMSO by the final concentration 10 μM, 5 μM, 2.5 μM, 1.25 μM and 0.625 μM and stocked as sealed in 384-well plates at −80° C.

[2] = biological target: T3, wild-type integrin CD11b/CD18 (Homo sapiens, UniProt P11215); experiment: HTS cell adhesion assay, K562 CD11b/CD18 cells on immobilized fibrinogen
T3 construct: expressed in transfected cells; host or cells: K562 (ATCC)
Description: as §1, with “Mutant CD11bE320A has been described previously.” left out
as §2, §3, §4, §5
Cell-adhesion under positive and negative control conditions was used to define the activity scale; signal corresponding to the number of non-small molecule treated cells adherent in activating buffer condition (in the presence of Mn^2+ ions as agonist, PC) was considered maximum (100% binding) and the signal corresponding to the number of non-small molecule treated cells adherent in basal buffer condition (in the presence of 1 mM each of Ca^2+ and Mg^2+, NC) was considered minimum (0% binding).

[3] = Table 3, adhesion to fibrinogen
[4] = Table 3, adhesion to fibrinogen, 5-point dose-response
[5] = Table 4, adhesion to fibrinogen, dose-response
[6] = Table 4, adhesion to fibrinogen

Structure (SMILES)	EC50 [1, 3]	EC50 (integrin CD11c/CD18)	further results
O=C(CN1C(=O)c2ccccc2C1=O)Nc1ccc(-c2nc3ccccc3o2)cc1 [Compound 1255636]	0.678 µM	–	EC50 CD11c/CD18 (integrin CD11c/CD18; Table 4): N/A Very Low; EC50 CD11b/CD18 [2, 4]: Very Low; EC50 CD11b/CD18 [2, 5]: N/A Very Low
O=C(O)CCN1C(=O)/C(=C\c2ccc(-c3nc4ccccc4s3)o2)SC1=S [Compound 2030970]	–	–	EC50 E320A [1, 3]: Very Low; EC50 CD11c/CD18 (integrin CD11c/CD18; Table 4): N/A Very Low; EC50 CD11b/CD18 [2, 4]: Very Low; EC50 CD11b/CD18 [2, 5]: N/A Very Low
O=C(O)CCN1C(=O)/C(=C/c2ccc(-c3nc4ccccc4s3)o2)SC1=S [Compound 2030972]	6.69 µM	–	EC50 [1, 6]: 6.69 µM; EC50 CD11c/CD18 (integrin CD11c/CD18; Table 3): Very Low; EC50 CD11c/CD18 (integrin CD11c/CD18; Table 4): N/A Very Low; EC50 CD11b/CD18 [2, 4]: Very Low; EC50 CD11b/CD18 [2, 5]: N/A Very Low
CCn1c(=NC(=O)c2ccc(N3C(=O)CCC3=O)cc2)sc2c(OC)ccc(OC)c21 [Compound 2150886]	5.05 µM	2.13 µM	–
CCOC(=O)c1c(NC(=O)c2cc(-c3ccc(Cl)s3)nc3ccccc23)sc(C(N)=O)c1C [Compound 2163411]	6.56 µM	1.77 µM	–
O=c1c(-c2nc3ccccc3o2)c2oc3ccccc3n2c2ccccc12 [Compound 2321209]	5.3 µM	2.63 µM	–
N#C/C(=C\c1ccc(OCc2ccccc2)cc1)C(=O)Nc1nc2c(s1)CCN(Cc1ccccc1)C2 [Compound 2327777]	21.9 µM	–	EC50 CD11c/CD18 (integrin CD11c/CD18; Table 3): Infinite
C=CCn1c(SCC(=O)c2ccc(CNC(C)=O)o2)nc2scc(C3CC3)c2c1=O [Compound 2569132]	6.29 µM	5.28 µM	–
Cc1ccc(C)c(NC(=S)NC(NC(=O)Cc2cccc3ccccc23)C(Cl)(Cl)Cl)c1 (stereo not shown) [Compound 2831455]	5.08 µM	6.87 µM	–
COC(=O)c1cc(OC)c(OC)cc1NC(=O)c1cc(-c2ccccc2)nc2ccccc12.Cl [Compound 2965657]	12.8 µM	–	EC50 CD11c/CD18 (integrin CD11c/CD18; Table 3): Infinite
CCCCn1c(SCC(=O)c2ccc(OC)cc2OC)nc2cc(S(N)(=O)=O)ccc21 [Compound 2997788]	5.27 µM	4.72 µM	–
O=C(Nc1nc(-c2ccco2)c(-c2ccco2)s1)C1CC(=O)N(c2ccc3c(c2)OCCO3)C1 (stereo not shown) [Compound 2998894]	5.86 µM	3.05 µM	–
CCOC(=O)Cc1csc(NC(=O)c2sc3nc4c(C)cc(C)cc4cc3c2N)n1 [Compound 3207334]	5.17 µM	1.99 µM	–
CCOC(=O)N1CCC(NC(=O)c2ccc3c(c2)sc2nc(-c4ccc(OC)cc4)cn23)CC1 [Compound 3235854]	5.55 µM	2.71 µM	–
Cc1onc(-c2c(Cl)cccc2Cl)c1C(=O)NC(=S)Nc1sc2c(c1C(N)=O)CCC(C)C2 (stereo not shown) [Compound 3466680]	5.99 µM	6.26 µM	–
O=C(ONc1ccc(N=NC(=O)c2ccccc2O)cc1)c1ccccc1 [Compound 4483668]	5.42 µM	4.64 µM	–
CCc1nnc(NC(=O)c2sc3nc4c(cc3c2N)CCCCCC4)s1 [Compound 5143923]	5.31 µM	3.01 µM	–
COC(=O)c1ccc2c(c1)N(Cc1nc(-c3cccc(C)c3)oc1C)C(=O)C1CCCN21 (stereo not shown) [Compound 5309602]	6.42 µM	2.56 µM	–
Cn1c(C(=O)NCCN2CCc3ccccc3C2)cc2c(=O)n(C)c3ccccc3c21 [Compound 5309909]	259 µM	–	EC50 CD11c/CD18 (integrin CD11c/CD18; Table 3): Infinite
Cc1ccc(/C=C/C(=O)Nc2ccc([N+](=O)[O-])c(NC(=O)/C=C/c3ccc(C)o3)c2)o1 [Compound 5736971]	6.55 µM	4.5 µM	–
O=C(N/N=C/c1ccc(-c2ccc(S(=O)(=O)Nc3ncccn3)cc2)o1)c1cc2ccccc2cc1O [Compound 6892904]	–	2.42 µM	EC50 [1, 6]: 5.49 µM
CC(C)CNC(=O)c1c(N)n(/N=C/c2ccccn2)c2nc3ccccc3nc12 [Compound 9568664]	6.19 µM	3.73 µM	–
CCOc1ccc(NC(=O)c2ccc(CNc3c(NC4CCCCC4)c(=O)c3=O)cc2)cc1 [Compound 11957216]	6.76 µM	4.31 µM	–
COc1cc(NC(=O)Cn2c(=O)n(-c3cccc(C)c3)c(=O)c3c(C)c(C)sc32)cc(OC)c1 [Compound 12004750]	6.23 µM	5.84 µM	–
Cc1ccc2nc(-c3ccc(NC(=O)CCS(=O)(=O)c4ccccc4)cc3)sc2c1 [Compound 12005977]	6.72 µM	5.05 µM	–
Cc1ccccc1Cn1c(=O)n(CC2CCC(C(=O)NCCc3ccccc3)CC2)c(=O)c2ccccc21 (stereo not shown) [Compound 12006068]	6.84 µM	2.46 µM	–

Further lines, with some results ahead:

EC50 [1, 3]	EC50 (integrin CD11c/CD18)	Structure (SMILES)	further results
3.71 µM	–	C=CCn1c(SCC(=O)c2[nH]c(C)c(C(=O)OC)c2C)nc2scc(-c3ccc(OC)c(OC)c3)c2c1=O [Compound 1745635]	EC50 [1, 6]: 3.71 µM; EC50 CD11c/CD18 (integrin CD11c/CD18; Table 3): Very low; EC50 CD11c/CD18 (integrin CD11c/CD18; Table 4): N/A Very Low; EC50 CD11b/CD18 [2, 5]: N/A Very Low
4.68 µM	2.54 µM	O=C(Nc1ccc2nc(-c3ccco3)c(-c3ccco3)nc2c1)N1CCCCCC1 [Compound 2214811]	–
4.1 µM	4.06 µM	Nc1c(C(=O)Nc2nccs2)sc2nc(-c3cccs3)cc(C(F)(F)F)c12 [Compound 2252798]	–
4.43 µM	1.87 µM	O=C(Nc1nccs1)c1cccc(N2C(=O)c3cccc4c([N+](=O)[O-])ccc(c34)C2=O)c1 [Compound 2254616]	–
2.83 µM	4.04 µM	Cc1ccc2nc(-c3ccc(NC(=O)COC(=O)c4cncc(Br)c4)cc3)sc2c1 [Compound 2365417]	–
3.69 µM	1.35 µM	Cc1ccc(CCN2CC(C(=O)NCCCN3CCCCCC3)CC2=O)cc1 (stereo not shown) [Compound 3237466]	–
1.28 µM	0.691 µM	COc1ccc2cc3cc(C(=O)Nc4ccc5c(c4)OCCO5)oc3nc2c1 [Compound 3241193]	–
2.83 µM	1.89 µM	O=C1Nc2ccccc2SC(c2ccccc2)C1O (stereo not shown) [Compound 3242458]	–
4.91 µM	4.03 µM	Cc1nc(C)c(C(=O)Nc2nc3c(C)cccc3s2)o1 [Compound 3244965]	–
1.26 µM	–	O=C(Cn1c(=O)oc2cc(S(=O)(=O)N3CCCC3)ccc21)NC1CCCc2ccccc21 (stereo not shown) [Compound 5308150]	EC50 [1, 6]: 1.26 µM; EC50 CD11c/CD18 (integrin CD11c/CD18; Table 3): Very Low; EC50 CD11c/CD18 (integrin CD11c/CD18; Table 4): N/A Very Low; EC50 CD11b/CD18 [2, 5]: N/A Very Low
2.35 µM	2.01 µM	C/C(=N/NC(=O)c1cc2ccccc2cc1O)C1C(=O)c2ccccc2C1=O [Compound 5431927]	–
2.53 µM	2.54 µM	C=CCOC(=O)c1cc(-c2ccc(/C=C3\C(=O)NC(=O)C(C#N)=C3C)o2)ccc1Cl [Compound 5769297]	–
4.99 µM	2.6 µM	COCCCNC(=O)c1c(N)n(/N=C/c2cccs2)c2nc3ccccc3nc12 [Compound 6880740]	–
4.16 µM	1.03 µM	CCCCCCCC(=O)Nc1ccc(C(=O)N/N=C/c2cccc([N+](=O)[O-])c2)cc1 [Compound 9774264]	–
